The source of these data is patent US11173151B2, “Substituted triazole derivatives and uses thereof” (BAYER AKTIENGESELLSCHAFT, priority 2017, dated 2021).

Assay [1] has as its target T1, human V1a receptor (Homo sapiens, UniProt P37288).
T1 construct: expressed in transfected cells; host or cells: CHO K1 (ATCC), also stably transfected with a modified aequorin
Kind of assay: Cellular in vitro assay for determining vasopressin receptor activity, V1a receptor cell line (CHO, aequorin luminescence). To be noted: for pIC50: CHO cell line transfected with human V1a receptor, [Arg]-vasopressin at EC50 concentration, read-out: IC50 hV1a; for ratio IC50 hV2/hV1a: selectivity ratio IC50 hV2 / IC50 hV1a. Format: cell-based. The procedure, abridged: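 Cells were plated the day before in medium containing 5 μg/ml coelenterazine and kept at 37° C. Compounds at various concentrations were then added for 10 minutes. Next, [Arg]-vasopressin at EC50 was applied and light output recorded at once, yielding IC50.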

The target of assay [2] is T2, human V2 receptor (Homo sapiens, UniProt P30518).
T2 construct: expressed in transfected cells; host or cells: CHO K1 (ATCC) expressing firefly luciferase under a CRE-responsive promoter
Kind of assay: Cellular in vitro assay for determining vasopressin receptor activity, V2 receptor cell line (CHO, CRE-luciferase). The following applies: CHO cell line transfected with human V2 receptor; [Arg8]-vasopressin at EC50 concentration, 3 hours; read-out: IC50 hV2. It is filed as cell-based.

A word on the pIC50: it is −log10 of the IC50, conventionally taken in molar units.

Structures are written as SMILES. pIC50: −log10 of the molar value.

T1 sequence (P37288 whole entry): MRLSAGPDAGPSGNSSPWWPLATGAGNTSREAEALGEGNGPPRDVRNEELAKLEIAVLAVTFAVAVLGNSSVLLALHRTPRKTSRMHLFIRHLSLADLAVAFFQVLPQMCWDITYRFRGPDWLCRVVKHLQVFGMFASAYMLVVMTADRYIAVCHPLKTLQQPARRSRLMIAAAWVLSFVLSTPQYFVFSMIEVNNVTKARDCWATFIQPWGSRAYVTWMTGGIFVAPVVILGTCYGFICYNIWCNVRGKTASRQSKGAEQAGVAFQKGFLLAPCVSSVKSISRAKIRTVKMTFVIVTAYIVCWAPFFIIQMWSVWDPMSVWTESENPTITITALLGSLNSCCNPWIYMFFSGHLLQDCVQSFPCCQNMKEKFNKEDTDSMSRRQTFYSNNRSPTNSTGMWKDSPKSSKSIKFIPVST
T2 sequence (P30518 whole entry): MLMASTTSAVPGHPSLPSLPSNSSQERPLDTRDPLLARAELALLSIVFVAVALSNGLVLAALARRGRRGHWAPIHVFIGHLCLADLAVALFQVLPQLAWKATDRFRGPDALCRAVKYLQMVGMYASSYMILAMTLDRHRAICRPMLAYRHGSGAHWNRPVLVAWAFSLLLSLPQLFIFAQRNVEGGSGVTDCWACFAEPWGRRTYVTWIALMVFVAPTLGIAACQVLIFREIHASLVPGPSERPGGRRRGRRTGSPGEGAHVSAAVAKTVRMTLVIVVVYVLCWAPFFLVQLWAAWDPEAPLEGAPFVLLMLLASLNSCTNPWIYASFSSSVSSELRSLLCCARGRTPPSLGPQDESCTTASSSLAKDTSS

Consider `O=C1CCC(CNc2ncccc2-n2cnc(Cn3nc(-c4ccc(Cl)cc4)n(C[C@H](O)C(F)(F)F)c3=O)n2)N1` (stereo partly drawn) [Example 70, 5-(4-Chlorophenyl)-2-{[1-(2-{[(5-oxopyrrolidin-2-yl)methyl]amino}pyridin-3-yl)-1H-1,2,4-triazol-3-yl]methyl}-4-[(2S)-3,3,3-trifluoro-2-hydroxypropyl]-2,4-dihydro-3H-1,2,4-triazol-3-one], for which, in assay [1], the pIC50 is 6.82 and the “ratio IC50 hV2/hV1a” value amounted to 4.6. In addition, in assay [2], the pIC50 was 6.16.

With `O=c1n(Cc2ncn(-c3cccnc3NCC(F)(F)F)n2)nc(-c2ccc(Cl)cc2)n1C[C@H](O)C(F)(F)F` [Example 71, 5-(4-Chlorophenyl)-2-[(1-{2-[(2,2,2-trifluoroethyl)amino]pyridin-3-yl}-1H-1,2,4-triazol-3-yl)methyl]-4-[(2S)-3,3,3-trifluoro-2-hydroxypropyl]-2,4-dihydro-3H-1,2,4-triazol-3-one], the pIC50 in assay [1] was 6.82; in assay [2], 6.62. Also, in assay [1], the “ratio IC50 hV2/hV1a” value is 1.6.

Turning to `O=c1n(Cc2ncn(-c3cccnc3NCC3CS(=O)(=O)C3)n2)nc(-c2ccc(Cl)cc2)n1C[C@H](O)C(F)(F)F` [Example 72, 5-(4-Chlorophenyl)-2-{[1-(2-{[(1,1-dioxidothietan-3-yl)methyl]amino}pyridin-3-yl)-1H-1,2,4-triazol-3-yl]methyl}-4-[(2S)-3,3,3-trifluoro-2-hydroxypropyl]-2,4-dihydro-3H-1,2,4-triazol-3-one], in assay [1], the negative logarithm of the IC50 (pIC50) is 5.69 and the “ratio IC50 hV2/hV1a” value amounted to 15.6. The pIC50 in assay [2] was 4.49.

As for `CC(=O)Nc1ncccc1-n1cnc(Cn2nc(-c3ccc(Cl)cc3)n(C[C@H](O)C(F)(F)F)c2=O)n1` [Example 73, N-{3-[3-({3-(4-Chlorophenyl)-5-oxo-4-[(2S)-3,3,3-trifluoro-2-hydroxypropyl]-4,5-dihydro-1H-1,2,4-triazol-1-yl}methyl)-1H-1,2,4-triazol-1-yl]pyridin-2-yl}acetamide], the pIC50 is 7.28 in assay [1] and 6.15 in assay [2]. Besides, the “ratio IC50 hV2/hV1a” value in assay [1] is 13.4.

As to `O=C(CC(F)(F)F)Nc1ncccc1-n1cnc(Cn2nc(-c3ccc(Cl)cc3)n(C[C@H](O)C(F)(F)F)c2=O)n1` [Example 74, N-{3-[3-({3-(4-Chlorophenyl)-5-oxo-4-[(2S)-3,3,3-trifluoro-2-hydroxypropyl]-4,5-dihydro-1H-1,2,4-triazol-1-yl}methyl)-1H-1,2,4-triazol-1-yl]pyridin-2-yl}-3,3,3-trifluoropropanamide], in assay [1], the negative logarithm of the IC50 (pIC50) was 8.25 and the “ratio IC50 hV2/hV1a” value came to 154.5. Besides, the pIC50 in assay [2] is 6.06.

Consider `O=C(Nc1ncccc1-n1cnc(Cn2nc(-c3ccc(Cl)cc3)n(C[C@H](O)C(F)(F)F)c2=O)n1)C1CC(F)(F)C1` [Example 80, N-{3-[3-({3-(4-Chlorophenyl)-5-oxo-4-[(2S)-3,3,3-trifluoro-2-hydroxypropyl]-4,5-dihydro-1H-1,2,4-triazol-1-yl}methyl)-1H-1,2,4-triazol-1-yl]pyridin-2-yl}-3,3-difluorocyclobutanecarboxamide], for which, in assay [1], the pIC50 is 8.18 and the “ratio IC50 hV2/hV1a” value came to 270.7. Besides, in assay [2], the negative logarithm of the IC50 (pIC50) is 5.74.

Regarding `O=C(Nc1ncccc1-n1cnc(Cn2nc(-c3ccc(Cl)cc3)n(C[C@H](O)C(F)(F)F)c2=O)n1)C1(C(F)(F)F)CC1` [Example 81, N-{3-[3-({3-(4-Chlorophenyl)-5-oxo-4-[(2S)-3,3,3-trifluoro-2-hydroxypropyl]-4,5-dihydro-1H-1,2,4-triazol-1-yl}methyl)-1H-1,2,4-triazol-1-yl]pyridin-2-yl}-1-(trifluoromethyl)cyclopropanecarboxamide], in assay [1], the negative-log IC50 (pIC50) is 8.69 and the “ratio IC50 hV2/hV1a” value stood at 658.5. Also, in assay [2], the pIC50 is 5.87.

As to `O=C(Nc1ncccc1-n1cnc(Cn2nc(-c3ccc(Cl)cc3)n(C[C@H](O)C(F)(F)F)c2=O)n1)C1CC1` [Example 83, N-{3-[3-({3-(4-Chlorophenyl)-5-oxo-4-[(2S)-3,3,3-trifluoro-2-hydroxypropyl]-4,5-dihydro-1H-1,2,4-triazol-1-yl}methyl)-1H-1,2,4-triazol-1-yl]pyridin-2-yl}cyclopropanecarboxamide], the pIC50 in assay [1] was 8.27; in assay [2], 6.24. In assay [1], the “ratio IC50 hV2/hV1a” value turned out to be 106.5.

`O=C(Nc1ncccc1-n1cnc(Cn2nc(-c3ccc(Cl)cc3)n(C[C@H](O)C(F)(F)F)c2=O)n1)C1CC1F` (stereo partly drawn) [Example 85, N-{3-[3-({3-(4-Chlorophenyl)-5-oxo-4-[(2S)-3,3,3-trifluoro-2-hydrxypropyl]-4,5-dihydro-1H-1,2,4-triazol-1-yl}methyl)-1H-1,2,4-triazol-1-yl]pyridin-2-yl}-2-fluorocyclopropanecarboxamide]: in assay [1], the negative logarithm of the IC50 (pIC50) was 8.13 and the “ratio IC50 hV2/hV1a” value is given as 673.5. For the same compound, in assay [2], the pIC50 is 5.31.

Regarding `O=C(CC1CC1)Nc1ncccc1-n1cnc(Cn2nc(-c3ccc(Cl)cc3)n(C[C@H](O)C(F)(F)F)c2=O)n1` [Example 87, N-{3-[3-({3-(4-Chlorophenyl)-5-oxo-4-[(2S)-3,3,3-trifluoro-2-hydroxypropyl]-4,5-dihydro-1H-1,2,4-triazol-1-yl}methyl)-1H-1,2,4-triazol-1-yl]pyridin-2-yl}-2-cyclopropylacetamide], in assay [1], the pIC50 is 8.32 and the “ratio IC50 hV2/hV1a” value is reported as 228.1. Further, in assay [2], the pIC50 is 5.96.

In the case of `O=C(Cn1cncn1)Nc1ncccc1-n1cnc(Cn2nc(-c3ccc(Cl)cc3)n(C[C@H](O)C(F)(F)F)c2=O)n1` [Example 88, N-{3-[3-({3-(4-Chlorophenyl)-5-oxo-4-[(2S)-3,3,3-trifluoro-2-hydroxypropyl]-4,5-dihydro-1H-1,2,4-triazol-1-yl}methyl)-1H-1,2,4-triazol-1-yl]pyridin-2-yl}-2-(1H-1,2,4-triazol-1-yl)acetamide], in assay [1], the pIC50 was 7.39 and the “ratio IC50 hV2/hV1a” value worked out at 28.7. Also, the negative logarithm of the IC50 (pIC50) in assay [2] is 5.93.

Turning to `O=C(Cc1cccnc1)Nc1ncccc1-n1cnc(Cn2nc(-c3ccc(Cl)cc3)n(C[C@H](O)C(F)(F)F)c2=O)n1` [Example 89], the pIC50 in assay [1] was 7.44; in assay [2] it was 5.73. Further, the “ratio IC50 hV2/hV1a” value in assay [1] is recorded as 51.4.

Take `CN1CC(C(=O)Nc2ncccc2-n2cnc(Cn3nc(-c4ccc(Cl)cc4)n(C[C@H](O)C(F)(F)F)c3=O)n2)CC1=O` (stereo partly drawn) [Example 90]: in assay [1], the pIC50 is 7.05 and the “ratio IC50 hV2/hV1a” value was determined as 17.2. The pIC50 in assay [2] was 5.81.

Turning to `O=C(CN1CCCC1=O)Nc1ncccc1-n1cnc(Cn2nc(-c3ccc(Cl)cc3)n(C[C@H](O)C(F)(F)F)c2=O)n1` [Example 91], in assay [1], the pIC50 was 6.71 and the “ratio IC50 hV2/hV1a” value is recorded as 6.4. Moreover, the pIC50 in assay [2] was 5.90.

Consider `Cc1cnn(CC(=O)Nc2ncccc2-n2cnc(Cn3nc(-c4ccc(Cl)cc4)n(C[C@H](O)C(F)(F)F)c3=O)n2)c1` [Example 92], for which, in assay [1], the pIC50 is 6.62 and the “ratio IC50 hV2/hV1a” value was found to be 7.3. The negative logarithm of the IC50 (pIC50) in assay [2] was 5.76.

For `O=C(Nc1ncccc1-n1cnc(Cn2nc(-c3ccc(Cl)cc3)n(C[C@H](O)C(F)(F)F)c2=O)n1)c1cncc(F)c1` [Example 93], in assay [1], the pIC50 was 8.12 and the “ratio IC50 hV2/hV1a” value is listed as 66.0. For the same compound, the pIC50 in assay [2] was 6.30.

As to `Cc1nccn1CC(=O)Nc1ncccc1-n1cnc(Cn2nc(-c3ccc(Cl)cc3)n(C[C@H](O)C(F)(F)F)c2=O)n1` [Example 94], in assay [1], the pIC50 was 7.80 and the “ratio IC50 hV2/hV1a” value is listed as 140.6. For the same compound, the pIC50 in assay [2] was 5.65.

With `O=C(Nc1ncccc1-n1cnc(Cn2nc(-c3ccc(Cl)cc3)n(C[C@H](O)C(F)(F)F)c2=O)n1)c1ccccc1` [Example 95], in assay [1], the pIC50 was 7.04 and the “ratio IC50 hV2/hV1a” value came to 23.4. Also, in assay [2], the pIC50 is 5.67.

Turning to `CNCC(=O)Nc1ncccc1-n1cnc(Cn2nc(-c3ccc(Cl)cc3)n(C[C@H](O)C(F)(F)F)c2=O)n1` [Example 96], the values for the negative logarithm of the IC50 (pIC50) in assay [1] and in assay [2] were 8.68 and 6.25, respectively. In addition, the “ratio IC50 hV2/hV1a” value in assay [1] stood at 266.7.

As to `O=C(Cc1ccccc1)Nc1ncccc1-n1cnc(Cn2nc(-c3ccc(Cl)cc3)n(C[C@H](O)C(F)(F)F)c2=O)n1` [Example 97], in assay [1], the negative-log IC50 (pIC50) is 6.87 and the “ratio IC50 hV2/hV1a” value is recorded as 15.2. Further, in assay [2], the pIC50 was 5.69.

In the case of `CC1(C(=O)Nc2ncccc2-n2cnc(Cn3nc(-c4ccc(Cl)cc4)n(C[C@H](O)C(F)(F)F)c3=O)n2)CCCO1` (stereo partly drawn) [Example 98], in assay [1], the negative-log IC50 (pIC50) was 6.90 and the “ratio IC50 hV2/hV1a” value amounted to 7.6. Moreover, in assay [2], the pIC50 was 6.02.

In the case of `CC1CC(=O)NC1C(=O)Nc1ncccc1-n1cnc(Cn2nc(-c3ccc(Cl)cc3)n(C[C@H](O)C(F)(F)F)c2=O)n1` (stereo partly drawn) [Example 99], in assay [1], the pIC50 was 7.40 and the “ratio IC50 hV2/hV1a” value is on record as 100.0. In assay [2], the pIC50 is 5.40.

For the compound `O=C(Nc1ncccc1-n1cnc(Cn2nc(-c3ccc(Cl)cc3)n(C[C@H](O)C(F)(F)F)c2=O)n1)c1csnn1` [Example 100], the pIC50 in assay [1] is 7.58; in assay [2] it was 5.97. For the same compound, in assay [1], the “ratio IC50 hV2/hV1a” value is given as 40.2.

As for `O=C(Nc1ncccc1-n1cnc(Cn2nc(-c3ccc(Cl)cc3)n(C[C@H](O)C(F)(F)F)c2=O)n1)c1ccccc1O` [Example 101], in assay [1], the pIC50 is 6.96 and the “ratio IC50 hV2/hV1a” value came out at 17.7. Besides, the pIC50 in assay [2] was 5.71.

Consider `Cc1cc(C(=O)Nc2ncccc2-n2cnc(Cn3nc(-c4ccc(Cl)cc4)n(C[C@H](O)C(F)(F)F)c3=O)n2)on1` [Example 102], for which, in assay [1], the pIC50 was 7.10 and the “ratio IC50 hV2/hV1a” value is recorded as 14.4. Also, the negative logarithm of the IC50 (pIC50) in assay [2] was 5.94.

For `O=C(CN1CCCCC1)Nc1ncccc1-n1cnc(Cn2nc(-c3ccc(Cl)cc3)n(C[C@H](O)C(F)(F)F)c2=O)n1` [Example 103], the pIC50 in assay [1] was 6.81; in assay [2] it was 5.62. In addition, the “ratio IC50 hV2/hV1a” value in assay [1] was 15.5.
